Results reported in ChEMBL document CHEMBL3734705, “Synthesis and in vitro cytotoxicity of novel C-12 substituted-14-deoxy-andrographolide derivatives as potent anti-cancer agents” (2015).
Activity calls are given as the source filed them. The rule behind the calls is not given here.

Columns and labels:
[1] = Cytotoxicity against human DU145 cells assessed as growth inhibition at 10 uM after 48 hrs by SRB assay; type: functional; conditions: DU-145, 48 h, read-out: GI
[2] = Cytotoxicity against human IGROV1 cells assessed as growth inhibition at 10 uM after 48 hrs by SRB assay; type: functional; conditions: IGROV-1, 48 h, read-out: GI
[3] = Cytotoxicity against human SKOV3 cells assessed as growth inhibition at 10 uM after 48 hrs by SRB assay; type: functional; conditions: SK-OV-3, 48 h, read-out: GI
[4] = Cytotoxicity against human NCI-ADR-RES cells assessed as growth level at 10 uM after 48 hrs by SRB assay; type: functional
[5] = Cytotoxicity against human PC3 cells assessed as growth inhibition at 10 uM after 48 hrs by SRB assay; type: functional; conditions: PC-3, 48 h, read-out: GI
NCI-H460 = assay: Cytotoxicity against human NCI-H460 cells assessed as growth inhibition at 10 uM after 48 hrs by SRB assay; type: functional; conditions: NCI-H460, 48 h, read-out: GI
HT-29 = assay: Cytotoxicity against human HT-29 cells assessed as growth level at 10 uM after 48 hrs by SRB assay; type: functional
MDA-MB-435 [6] = assay: Cytotoxicity against human MDA-MB-435 cells assessed as growth inhibition at 10 uM after 48 hrs by SRB assay; type: functional; conditions: MDA-MB-435, 48 h, read-out: GI
SK-MEL-5 = assay: Cytotoxicity against human SK-MEL-5 cells assessed as growth inhibition at 10 uM after 48 hrs by SRB assay; type: functional; conditions: SK-MEL-5, 48 h, read-out: GI
[7] = Cytotoxicity against human Hs578T cells assessed as growth level at 10 uM after 48 hrs by SRB assay; type: functional, Hs-578T
MCF7 = assay: Cytotoxicity against human MCF7 cells assessed as growth inhibition at 10 uM after 48 hrs by SRB assay; type: functional; conditions: MCF7, 48 h, read-out: GI
A498 = assay: Cytotoxicity against human A498 cells assessed as growth level at 10 uM after 48 hrs by SRB assay; type: functional
MDA-MB-468 [8] = assay: Cytotoxicity against human MDA-MB-468 cells assessed as growth inhibition at 10 uM after 48 hrs by SRB assay; type: functional; conditions: MDA-MB-468, 48 h, read-out: GI
[9] = Cytotoxicity against human UACC62 cells assessed as growth inhibition at 10 uM after 48 hrs by SRB assay; type: functional; conditions: UACC-62, 48 h, read-out: GI
NCI-H23 = assay: Cytotoxicity against human NCI-H23 cells assessed as growth inhibition at 10 uM after 48 hrs by SRB assay; type: functional; conditions: NCI-H23, 48 h, read-out: GI
[10] = Cytotoxicity against human HOP92 cells assessed as growth inhibition at 10 uM after 48 hrs by SRB assay; type: functional; conditions: HOP-92, 48 h, read-out: GI
[11] = Cytotoxicity against human LOXIMVI cells assessed as growth level at 10 uM after 48 hrs by SRB assay; type: functional, LOX IMVI
MDA-MB-468 [12] = assay: Cytotoxicity against human MDA-MB-468 cells assessed as growth level at 10 uM after 48 hrs by SRB assay; type: functional
[13] = Cytotoxicity against human OVCAR4 cells assessed as growth level at 10 uM after 48 hrs by SRB assay; type: functional, OVCAR-4
[14] = Cytotoxicity against human HOP92 cells assessed as growth level at 10 uM after 48 hrs by SRB assay; type: functional, HOP-92
NCI-H226 = assay: Cytotoxicity against human NCI-H226 cells assessed as growth inhibition at 10 uM after 48 hrs by SRB assay; type: functional; conditions: NCI-H226, 48 h, read-out: GI
[15] = Cytotoxicity against human UACC62 cells assessed as growth level at 10 uM after 48 hrs by SRB assay; type: functional, UACC-62
Malme-3M = assay: Cytotoxicity against human MALME-3M cells assessed as growth level at 10 uM after 48 hrs by SRB assay; type: functional
[16] = Cytotoxicity against human HCT116 cells assessed as growth level at 10 uM after 48 hrs by SRB assay; type: functional, HCT-116
[17] = Cytotoxicity against human SW620 cells assessed as growth inhibition at 10 uM after 48 hrs by SRB assay; type: functional; conditions: SW-620, 48 h, read-out: GI
NCI-H322M = assay: Cytotoxicity against human NCI-H322M cells assessed as growth inhibition at 10 uM after 48 hrs by SRB assay; type: functional
K562 = assay: Cytotoxicity against human K562 cells assessed as growth inhibition at 10 uM after 48 hrs by SRB assay; type: functional; conditions: K562, 48 h, read-out: GI
[18] = Cytotoxicity against human RPMI8226 cells assessed as growth inhibition at 10 uM after 48 hrs by SRB assay; type: functional; conditions: RPMI-8226, 48 h, read-out: GI
[19] = Cytotoxicity against human OVCAR8 cells assessed as growth inhibition at 10 uM after 48 hrs by SRB assay; type: functional; conditions: OVCAR-8, 48 h, read-out: GI
[20] = Cytotoxicity against human MOLT4 cells assessed as growth level at 10 uM after 48 hrs by SRB assay; type: functional, MOLT-4
EKVX = assay: Cytotoxicity against human EKVX cells assessed as growth level at 10 uM after 48 hrs by SRB assay; type: functional
[21] = Cytotoxicity against human TK10 cells assessed as growth level at 10 uM after 48 hrs by SRB assay; type: functional, TK-10
CCRF-CEM [22] = assay: Cytotoxicity against human CCRF-CEM cells assessed as growth level at 10 uM after 48 hrs by SRB assay; type: functional
SR = assay: Cytotoxicity against human SR cells assessed as growth inhibition at 10 uM after 48 hrs by SRB assay; type: functional; conditions: read-out: GI
CCRF-CEM [23] = assay: Cytotoxicity against human CCRF-CEM cells assessed as growth inhibition at 10 uM after 48 hrs by SRB assay; type: functional; conditions: read-out: GI
[24] = Cytotoxicity against human RPMI8226 cells assessed as growth level at 10 uM after 48 hrs by SRB assay; type: functional, RPMI-8226
[25] = Cytotoxicity against human SF268 cells assessed as growth level at 10 uM after 48 hrs by SRB assay; type: functional, SF-268
[26] = Cytotoxicity against human HCC2998 cells assessed as growth inhibition at 10 uM after 48 hrs by SRB assay; type: functional; conditions: HCC 2998, 48 h, read-out: GI
[27] = Cytotoxicity against human HOP62 cells assessed as growth level at 10 uM after 48 hrs by SRB assay; type: functional, HOP-62
ACHN = assay: Cytotoxicity against human ACHN cells assessed as growth inhibition at 10 uM after 48 hrs by SRB assay; type: functional; conditions: read-out: GI
[28] = Cytotoxicity against human SW620 cells assessed as growth level at 10 uM after 48 hrs by SRB assay; type: functional, SW-620
MDA-MB-435 [29] = assay: Cytotoxicity against human MDA-MB-435 cells assessed as growth level at 10 uM after 48 hrs by SRB assay; type: functional
[30] = Cytotoxicity against human HL-60(TB) cells assessed as growth inhibition at 10 uM after 48 hrs by SRB assay; type: functional; conditions: HL-60, 48 h, read-out: GI

## C=C1CC[C@@H]2[C@](C)(COC(C)=O)[C@H](OC(C)=O)CC[C@@]2(C)[C@@H]1CC(NC1CCCC1)C1=CCOC1=O (stereo partly drawn)
[1]
  inhibition of growth at 10 µM: 8.04%
[2]
  inhibition of growth at 10 µM: 11.8%
[3]
  inhibition of growth at 10 µM: 12.1%
[4]
  Activity: 68.47%
[5]
  inhibition of growth at 10 µM: 55.3%
NCI-H460
  inhibition of growth at 10 µM: 25.2%
HT-29
  Activity: 75.54%
MDA-MB-435 [6]
  inhibition of growth at 10 µM: 24.3%
SK-MEL-5
  inhibition of growth at 10 µM: 65.7%
[7]
  Activity: 74.91%
MCF7
  inhibition of growth at 10 µM: 27.6%
A498
  Activity: 68%
MDA-MB-468 [8]
  inhibition of growth at 10 µM: 65.3%
[9]
  inhibition of growth at 10 µM: 34.4%
NCI-H23
  inhibition of growth at 10 µM: 37.5%
[10]
  inhibition of growth at 10 µM: 74.8%
[11]
  Activity: 68.48%
MDA-MB-468 [12]
  Activity: 34.72%
[13]
  Activity: 58.35%
[14]
  Activity: 25.23%
NCI-H226
  inhibition of growth at 10 µM: 15.5%
[15]
  Activity: 65.59%
Malme-3M
  Activity: 84.55%
[16]
  Activity: 44.68%
[17]
  inhibition of growth at 10 µM: 32.5%
NCI-H322M
  growth inhibition (GI): inactive
K562
  inhibition of growth at 10 µM: 51.7%
[18]
  inhibition of growth at 10 µM: 62.5%
[19]
  inhibition of growth at 10 µM: 46.3%
[20]
  Activity: 42.41%
EKVX
  Activity: 52.44%
[21]
  Activity: 87.06%
CCRF-CEM [22]
  Activity: 63.47%
SR
  inhibition of growth at 10 µM: 80.4%
CCRF-CEM [23]
  inhibition of growth at 10 µM: 36.5%
[24]
  Activity: 37.5%
[25]
  Activity: 76.66%
[26]
  inhibition of growth at 10 µM: 9.65%
[27]
  Activity: 94.41%
ACHN
  inhibition of growth at 10 µM: 21.5%
[28]
  Activity: 67.48%
MDA-MB-435 [29]
  Activity: 75.73%
[30]
  inhibition of growth at 10 µM: 57.3%
